Laboratory results as given in patent US10005721B2, “Dimethylbenzoic acid compounds” (Eli Lilly and Company, priority 2013, dated 2018).

How the values were obtained:
[1] = biological target: T1, human EP2 (Homo sapiens, UniProt P43116); experiment: In vitro binding to human EP2 ([3H]-PGE2 displacement, membranes); conditions: HEK293 membranes, geometric mean ± SD, read-out: hEP2, Ki
T1 construct: expressed in transfected cells; host or cells: HEK293 (transient)
Method: (§1) hEP1 and hEP4 membranes are prepared from recombinant HEK293 cells stably expressing human EP1 (Genbank accession number AY275470) or EP4 (Genbank accession number AY429109) receptors. hEP2 and hEP3 membranes are prepared from HEK293 cells transiently transfected with EP2 (Genbank accession number AY275471) or EP3 (isoform VI: Genbank accession number AY429108) receptor plasmids. Frozen cell pellets are homogenized in homogenization buffer using a Teflon/glass homogenizer. Membrane protein is aliquoted and quick frozen on dry ice prior to storage at −80° C. Homogenization buffer contained 10 mM Tris-HCl, pH 7.4, 250 mM sucrose, 1 mM EDTA, 0.3 mM indomethacin and plus Complete™, with EDTA, obtained from Roche Molecular Biochemicals (Catalog Number 1 697 498).
(§2) Kd values for [^3H]-PGE2 binding to each receptor are determined by saturation binding studies or homologous competition. […] Non-specific binding is calculated by comparing binding in the presence and absence of 2 μM of PGE2. The membranes are harvested by filtration (TomTek harvester), washed 4 times with cold buffer (10 mM MES pH 6.0 with KOH, 10 mM MgCl2), dried in a 60° C. oven, and the radioactivity is quantified as counts per minute (CPM) using a TopCount detector. Percent specific binding is calculated as the percent of the binding in the absence of any inhibitor, corrected for binding in the presence of 2 uM of PGE2. […]

[2] = biological target: T2, human EP1 (Homo sapiens, UniProt P34995); experiment: In vitro binding to human EP1 ([3H]-PGE2 displacement, membranes); conditions: HEK293 membranes, geometric mean ± SD, read-out: hEP1, Ki
T2 construct: expressed in transfected cells
T2 sequence (P34995 1-402): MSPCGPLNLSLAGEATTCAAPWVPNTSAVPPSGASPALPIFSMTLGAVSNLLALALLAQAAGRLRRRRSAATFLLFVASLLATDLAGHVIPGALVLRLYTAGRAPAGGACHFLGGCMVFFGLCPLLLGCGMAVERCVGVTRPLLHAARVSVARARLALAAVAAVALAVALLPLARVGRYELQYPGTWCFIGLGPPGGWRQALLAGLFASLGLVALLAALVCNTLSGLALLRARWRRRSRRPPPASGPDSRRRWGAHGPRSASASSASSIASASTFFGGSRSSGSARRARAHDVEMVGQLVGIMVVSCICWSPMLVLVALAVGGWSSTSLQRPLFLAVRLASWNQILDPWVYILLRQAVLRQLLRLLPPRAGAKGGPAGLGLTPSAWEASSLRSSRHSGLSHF
Method: as §1, §2

[3] = biological target: T3, human EP3 (isoform VI) (Homo sapiens, UniProt P43115); experiment: In vitro binding to human EP3 ([3H]-PGE2 displacement, membranes); conditions: HEK293 membranes, geometric mean ± SD, read-out: hEP3, Ki
T3 construct: expressed in transfected cells; host or cells: HEK293 (transient)
T3 sequence (P43115 1-374 isoform P43115-4): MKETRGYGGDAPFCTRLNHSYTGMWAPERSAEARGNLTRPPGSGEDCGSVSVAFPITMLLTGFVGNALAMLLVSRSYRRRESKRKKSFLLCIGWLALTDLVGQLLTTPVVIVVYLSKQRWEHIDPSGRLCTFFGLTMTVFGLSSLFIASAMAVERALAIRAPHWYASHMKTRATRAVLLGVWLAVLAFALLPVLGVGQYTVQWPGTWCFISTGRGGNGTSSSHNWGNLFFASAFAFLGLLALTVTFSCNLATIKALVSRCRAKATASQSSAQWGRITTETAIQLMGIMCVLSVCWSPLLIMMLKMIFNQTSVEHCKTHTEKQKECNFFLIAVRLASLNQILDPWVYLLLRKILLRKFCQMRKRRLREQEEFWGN
Method: as §1, §2

[4] = biological target: T4, human EP4 (Homo sapiens, UniProt P35408); experiment: In vitro binding to human EP4 ([3H]-PGE2 displacement, membranes); conditions: HEK293 membranes, geometric mean ± SD, read-out: hEP4, Ki
T4 construct: expressed in transfected cells
Method: as §1, §2

[5] = biological target: T5, rat EP4 (Rattus norvegicus, UniProt P43114); experiment: In vitro rat EP4 functional antagonist activity (PGE2-stimulated cAMP, HTRF, HEK293); format: cell-based; conditions: HEK293 cells expressing rat EP4, PGE2 at EC80, cAMP HTRF; read-out: IC50 measured at rat EP4
T5 construct: expressed in transfected cells
Method: Rat EP4 cDNA (Genebank Accession# NM 03276) is cloned into pcDNA 3.1 vector and subsequently transfected in HEK293 cells for receptor expression. Rat EP4 stable clone is scaled up and then frozen down as cell bank for future compounds screening. To test EP4 antagonist compounds in rEP4 cells, thaw the frozen cells and then resuspend cells in cAMP assay buffer. The cAMP buffer is made by HBSS without Phenol Red (Hyclone, SH30268) supplemented with 20 mM HEPES (Hyclone, SH30237), 0.1% BSA (Gibco, 15260) and 125 μM IBMX (Sigma, 15879). The cells are plated into 96-well half area flat-bottom polystyrene black plates (Costar 3694). Compounds are serial diluted with DMSO to give 10-point concentration response curves. Then diluted compounds are added into cAMP assay buffer which contains PGE2 (Cayman 14010, in a concentration predetermined to produce an EC80) at ratio of DMSO/buffer at 1/100. The cells are treated with compounds in the presence of PGE2 (EC80 concentration) for 30 minutes at room temperature. The cAMP levels generated from the cells are quantified by a cAMP HTRF assay kit (Cisbio 62AM4PEC). The plates are read on an EnVision plate reader using HTRF optimized protocol (PerkinElmer). IC50's are calculated using Graphpad Prism (v. 4) nonlinear regression, sigmoidal dose response curve fitting.

[6] = biological target: T4, human EP4; experiment: In vitro human EP4 functional antagonist activity (PGE2-stimulated cAMP, HTRF, HEK293); format: cell-based; conditions: HEK293 cells expressing human EP4, EC80 of PGE2; geometric mean ± SD; read-out: IC50, inhibition of PGE2-stimulated cAMP production, human EP4
Method: Assays are conducted in recombinant HEK293 cells stably expressing human EP4 receptor. The cell lines are maintained by culturing in DMEM with high glucose and pyridoxine hydrochloride (Invitrogen) supplemented with 10% fetal bovine serum (FBS), 1 mM sodium pyruvate, 10 mM HEPES, […] and 2 mM L-glutamine. Confluent cultures are grown at 37° C. in an atmosphere containing 5% CO2. Cells are harvested using 2.5% Trypsin-EDTA, suspended in freeze media (FBS with 6% DMSO) at 10^7 cells/mL and aliquots are stored in liquid nitrogen. Just before assay, cells are thawed in DMEM, centrifuged, and resuspended in cAMP buffer.
The inhibition of PGE2-stimulated cAMP production by EP4 antagonists is measured using HTRF; (Cisbio catalog #62AM4PEB). […] The HTRF signal is detected using an EnVision® plate reader (Perkin-Elmer) to calculate the ratio of fluorescence at 665 nm to 620 nm. […] Results are expressed as the geometric mean±standard deviation; n=number of independent determinations. The standard deviation is calculated by the delta method, being Slog IC50×geometric mean×ln(10).

[7] = test system: LPS-induced TNFα production in human whole blood; experiment: In vitro antagonist activity in human whole blood (reversal of PGE2 inhibition of LPS-induced TNFα); format: cell-based; conditions: 10 μg/mL LPS, 10 nM PGE2, geometric mean ± SD, read-out: IC50, reversal of inhibitory effect of PGE2 on LPS-induced TNFα production
Description: The inhibitory effects of PGE2 on LPS-induced TNFα production from macrophages/monocytes are believed to be mediated by EP4 receptors (See Murase, A., et al., Life Sciences, 82:226-232 (2008)). The ability of the compound of Example 1 to reverse the inhibitory effect of PGE2 on LPS-induced TNFα production in human whole blood is an indicia of functional activity.
Blood is collected from normal volunteer donors into sodium heparin vacutainer tubes. Donors have not taken NSAIDs or celecoxib within 48 hours or glucocorticoids within two weeks of the donation. All tubes/donor are pooled into 50 mL Falcon conical centrifuge tubes and 98 μL/well is distributed into 96-well tissue culture plates (Falcon 3072). […] TNFα levels in 2 μL plasma are quantified by a commercially available enzyme immunoassay (R&D Systems DY210), using Immulon 4 HBX plates (Thermo 3855) and 3,3′,5,5′ tetramethylbiphenyl-4,4′-diamine substrate (KPL 50-76-03). The plates are read at A450-A650 on a plate reader (Molecular Devices Versamax) using SOFTmaxPRO (v. 4.3.1) software. IC50s are calculated using Graphpad Prism (v. 4) nonlinear regression, sigmoidal dose response curve fitting. Results are expressed as the geometric mean±standard deviation; n=number of independent determinations. The standard deviation is calculated by the delta method, being SDlog IC50×geometric mean×ln(10).

T4 sequence (P35408 whole entry): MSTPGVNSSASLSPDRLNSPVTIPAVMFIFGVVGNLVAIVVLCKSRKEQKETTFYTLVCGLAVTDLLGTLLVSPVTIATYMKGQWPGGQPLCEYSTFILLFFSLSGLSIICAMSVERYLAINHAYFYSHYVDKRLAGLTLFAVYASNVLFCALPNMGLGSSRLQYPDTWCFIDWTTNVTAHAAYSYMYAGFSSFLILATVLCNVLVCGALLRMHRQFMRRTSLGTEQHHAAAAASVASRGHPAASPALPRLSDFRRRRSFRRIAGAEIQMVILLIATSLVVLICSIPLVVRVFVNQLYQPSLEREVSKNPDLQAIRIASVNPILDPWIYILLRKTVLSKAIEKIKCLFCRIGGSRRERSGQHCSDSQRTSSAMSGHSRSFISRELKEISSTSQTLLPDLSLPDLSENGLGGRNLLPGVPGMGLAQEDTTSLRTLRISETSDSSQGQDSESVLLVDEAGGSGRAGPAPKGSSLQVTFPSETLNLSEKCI
T1 sequence (P43116 whole entry): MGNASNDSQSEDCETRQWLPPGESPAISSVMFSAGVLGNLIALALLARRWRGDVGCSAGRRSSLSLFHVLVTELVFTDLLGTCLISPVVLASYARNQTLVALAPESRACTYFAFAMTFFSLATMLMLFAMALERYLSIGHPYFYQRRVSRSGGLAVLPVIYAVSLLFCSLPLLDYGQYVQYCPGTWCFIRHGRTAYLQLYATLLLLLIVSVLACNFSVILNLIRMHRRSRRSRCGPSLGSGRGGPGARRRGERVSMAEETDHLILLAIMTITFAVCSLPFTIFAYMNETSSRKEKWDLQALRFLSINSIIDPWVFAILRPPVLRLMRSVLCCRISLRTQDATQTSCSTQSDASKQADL
T5 sequence (P43114 whole entry): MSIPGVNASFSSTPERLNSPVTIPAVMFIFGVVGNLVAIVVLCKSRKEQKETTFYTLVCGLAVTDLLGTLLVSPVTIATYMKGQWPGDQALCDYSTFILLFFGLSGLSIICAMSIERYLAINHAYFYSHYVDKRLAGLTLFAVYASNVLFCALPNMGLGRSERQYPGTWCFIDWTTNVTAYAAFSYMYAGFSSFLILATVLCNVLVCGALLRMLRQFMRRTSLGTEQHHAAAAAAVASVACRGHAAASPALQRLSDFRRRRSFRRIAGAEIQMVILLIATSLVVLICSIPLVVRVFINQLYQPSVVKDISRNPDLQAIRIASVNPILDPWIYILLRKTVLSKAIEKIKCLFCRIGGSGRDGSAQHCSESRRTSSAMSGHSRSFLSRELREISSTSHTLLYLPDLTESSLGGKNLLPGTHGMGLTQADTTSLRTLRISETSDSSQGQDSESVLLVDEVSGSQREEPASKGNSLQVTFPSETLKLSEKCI

Row | Ki [1] | Ki [2] | Ki [3] | Ki [4] | IC50 [5] | IC50 [6] | IC50 [7] | Compound
1 | > 18.9 µM | > 17.5 µM | > 14 µM | 2.07 ± 1.31 nM |  |  |  | Cc1ccc(-c2cccc(CO)c2)nc1C(=O)Nc1c(C)ccc(C(=O)O)c1C [Example 22, 3-[[6-[3-(Hydroxymethyl)phenyl]-3-methyl-pyridine-2-carbonyl]amino]-2,4-dimethyl-benzoic acid]
2 | 5.85 ± 1.01 µM | > 18.8 µM | > 14.8 µM | 2.18 ± 1.74 nM | 1.51 nM | 2.31 ± 2.02 nM | 59.5 ± 37.8 nM | Cc1ccc(-c2cccc(CO)c2)cc1C(=O)Nc1c(C)ccc(C(=O)O)c1C [Example 1, 3-[[5-[3-(Hydroxymethyl)phenyl]-2-methyl-benzoyl]amino]-2,4-dimethyl-benzoic acid]
